This is an account of results in patent US12649725B2 (Worcester Polytechnic Institute, priority 2020, dated 2026).

Usually IC50 stands for the midpoint of a concentration-inhibition curve.

Where two headings read alike, the source gives them in different places.

Series [1] in a line: Cytotoxicity assay (CellTiter-Glo) in KB cells. The class given is cell-based. The following applies: human, 48 hours post drug incubation, cell viability by CellTiter-Glo, triplicate, read-out: Chromenone cytotoxicity IC50, KB. How it is done:
(§1) Jurkat and L5178Y cells were cultured in RPMI 1640 (ATCC), HL60 cells were cultured in Iscove's Modified Dulbecco's Medium (IMDM, ATCC), KB and MCF7 cells were cultured in Eagles Minimum Essential Medium (EMEM, ATCC), and SKOV3 cells in McCoy's 5a Medium (ATCC) supplemented with 10% Heat Inactivated Fetal Bovine Serum (FBS), and Penicillin and Streptomycin (P/S) at 37° C. in a 5% CO2 incubator.
(§2) Proliferating cells were seeded at approximately 20×10^3 cells per 50 μL per well into 96 well plates using a MultiFlo FX multi-mode dispenser (BioTek). On reaching ≈40% cell density, the cells were then incubated with varying concentrations (195 nM to 200 μM final) of test samples using a Biomek FXP Automated Workstation (Beckman Coulter). 48 hours post drug incubation, cell viability was determined using Promega's CellTiter-Glo Luminescent Cell Viability Assay according to the manufacturer's protocol on a plate reader (EnVision from PerkinElmer) in Luminescence mode. In each experiment, each unique condition (i.e., different sample type and concentration) was tested in triplicate. The percentage of test sample induced toxicity was calculated with respect to DMSO treated cells and graphed to give dose response curves. IC50 values for each treatment were calculated using Graph-Pad Prism 8.0 Software.
(In ATP-based viability assays light output follows the ATP content of the culture.)

Series [2] can be described thus: Cytotoxicity assay (CellTiter-Glo) in L5178Y cells. It counts as cell-based. The following applies: mouse, 48 hours post drug incubation, cell viability by CellTiter-Glo, triplicate, read-out: Chromenone cytotoxicity IC50, L5178Y. On the procedure: as §1
as §2, with “The percentage of test sample induced toxicity was calculated with respect to DMSO treated cells and graphed to give dose response curves.” left out

Series [3] can be described thus: Cytotoxicity assay (CellTiter-Glo) in Jurkat cells. The class given is cell-based. The following applies: human; Jurkat cells, 48 hours post drug incubation, cell viability by CellTiter-Glo, triplicate; read-out: Chromenone cytotoxicity IC50, Jurkat. On the procedure:
as §1
as §2, with “The percentage of test sample induced toxicity was calculated with respect to DMSO treated cells and graphed to give dose response curves.” left out

The nature of series [4]: Cytotoxicity assay (CellTiter-Glo) in HL60 cells. It counts as cell-based. The following applies: human, 48 hours post drug incubation, cell viability by CellTiter-Glo, triplicate, read-out: Chromenone cytotoxicity IC50, HL60. How it is done:
as §1
as §2, with “The percentage of test sample induced toxicity was calculated with respect to DMSO treated cells and graphed to give dose response curves.” left out

For series [5], the system named is HL60 cells. The following applies: comparator natural product, other cells 'Not available', read-out: Cytotoxicity IC50, HL60 (natural product comparator); cited from earlier work.
For series [6], the system named is L5178Y cells. Description: Cytotoxicity assay (CellTiter-Glo) in L5178Y cells. The class given is cell-based. The following applies: 48 hours post drug incubation, cell viability by CellTiter-Glo, triplicate. How it is done: as §1
as §2, with “The percentage of test sample induced toxicity was calculated with respect to DMSO treated cells and graphed to give dose response curves.” left out

Series [7] concerns HL60 cells. Description: Cytotoxicity assay (CellTiter-Glo) in HL60 cells. The following applies: 48 hours post drug incubation, cell viability by CellTiter-Glo, triplicate. It counts as cell-based. How it is done:
as §1
as §2, with “The percentage of test sample induced toxicity was calculated with respect to DMSO treated cells and graphed to give dose response curves.” left out

Series [8] concerns Jurkat cells. Description: Cytotoxicity assay (CellTiter-Glo) in Jurkat cells. It counts as cell-based. The following applies: for Cytotoxicity in Jurkat screening (in words): cytotoxicity screening in Jurkat cell lines, FIG. 20. On the procedure: as §1
as §2, with “The percentage of test sample induced toxicity was calculated with respect to DMSO treated cells and graphed to give dose response curves.” left out

For series [9], the system named is Jurkat cells. The following applies: comparator natural product, other cells 'Not available', read-out: Cytotoxicity IC50, Jurkat (natural product comparator); cited from earlier work.
The subject of series [10] is L5178Y cells. The following applies: read-out: Cytotoxicity IC50, L5178Y (natural product comparator), other cells 'Not available'; cited from earlier work.
Series [11] concerns KB cells. The following applies: read-out: Cytotoxicity IC50, KB (natural product comparator), other cells 'Not available'; cited from earlier work.
Series [12] concerns KB cells. The series is described as follows: Cytotoxicity assay (CellTiter-Glo) in KB cells. The class given is cell-based. The following applies: 48 hours post drug incubation, cell viability by CellTiter-Glo, triplicate, read-out: Chromenone cytotoxicity IC50, KB. On the procedure: as §1, §2

For the compound `COc1ccc(-c2ccc(OC)c3c(=O)c(C(C)=O)c(C)oc23)c2oc(C)c(C(C)=O)c(=O)c12` [Compound 42, 3,3′-Diacetyl-5,5′-dimethoxy-2,2′-dimethyl-4H,4′H-[8,8′-bichromene]-4,4′-dione], the IC50 at 48 h in series [1], in [2] and in series [3] was > 50 µM throughout.
Regarding `COc1ccc(-c2ccc(OC)c3c(=O)c(C(C)=O)c([C@@H](OC(C)=O)C(C)C)oc23)c2oc([C@@H](OC(C)=O)C(C)C)c(C(C)=O)c(=O)c12` [Compound 48c], the concentration for half-maximal inhibition (IC50) at 48 h in [1], in [4] and in [3] was > 50 µM throughout.
For Versixanthone F, the IC50 in the series with HL60 cells [5] was 1 µM.
With `COC(=O)C(C)(C)c1cc(=O)c2c(OC)ccc(-c3ccc(OC)c4c(=O)cc(C(C)(C)C(=O)OC)oc34)c2o1` [Compound 39c, Dimethyl 2,2′-(5,5′-Dimethoxy-4,4′-dioxo-4H,4′H-[8,8′-bichromene]-2,2′-diyl)bis(2-methylpropanoate)], in the series on L5178Y cells [6], the “Chromenone cytotoxicity IC50, L5178Y” value is recorded as “low micromolar range”. Also, the IC50 at 48 h in series [4] amounted to 24 µM. In the series on HL60 cells [7], the “Chromenone cytotoxicity IC50, HL60” value is listed as “low micromolar range”. In addition, the “Cytotoxicity in Jurkat screening (in words)” value (“Cytotoxicity … (in words)” below) in the series on Jurkat cells [8] is “highest levels of cytotoxicity”.
Take Phomoxanthone A: the IC50 is 0.5 µM in the series on Jurkat cells [9], 0.3 µM with L5178Y cells [10] and 0.99 µM in the series on KB cells [11].
Turning to Dicerandrol C, in the series with L5178Y cells [10], the IC50 was 10 µM.
Regarding “3-Acetyl-5-hydroxy-2-methyl-4H-1-benzopyran-4-one Dimer [Compound 43]”, the IC50 in the series with KB cells [12] is > 50 µM; with L5178Y cells [6] (read-out: Chromenone cytotoxicity IC50, L5178Y), > 50 µM; in the series with HL60 cells [7] (read-out: Chromenone cytotoxicity IC50, HL60) it was > 50 µM; in the series with Jurkat cells [8] (Jurkat cells, 48 hours post drug incubation, cell viability by CellTiter-Glo, triplicate, read-out: Chromenone cytotoxicity IC50, Jurkat) it was 39 ± 1.1 µM.
Regarding Phomoxanthone B, in the series with KB cells [11], the IC50 was 4.1 µM.
Regarding `O=c1cc(C2CCCO2)oc2c(-c3ccc(O)c4c(=O)cc(C5CCCO5)oc34)ccc(O)c12` (stereo not shown) [Compound 28e, 5,5′-Dihydroxy-2,2′-bis(tetrahydrofuran-2-yl)-4H,4′H-[8,8′-bichromene]-4,4′-dione], the IC50 at 48 h in [1], in series [2] and in series [4] was > 50 µM throughout. Further, in the series on Jurkat cells [8], the “Cytotoxicity … (in words)” value is “highest levels of cytotoxicity”.
Regarding `COC(=O)C(C)(C)c1cc(=O)c2c(O)ccc(-c3ccc(O)c4c(=O)cc(C(C)(C)C(=O)OC)oc34)c2o1` [Compound 28c, Dimethyl 2,2′-(5,5′-Dihydroxy-4,4′-dioxo-4H,4′H-[8,8′-bichromene]-2,2′-diyl)bis(2-methylpropanoate)], the values for the IC50 at 48 h in series [1] and in series [2] were > 50 µM and 23 µM, respectively. In the series with L5178Y cells [6], the “Chromenone cytotoxicity IC50, L5178Y” value was “low micromolar range”. In addition, the “Chromenone cytotoxicity IC50, HL60” value with HL60 cells [7] is listed as “low micromolar range”. In the series with Jurkat cells [8], the “Cytotoxicity … (in words)” value was “highest levels of cytotoxicity”.
Take `COC(=O)C(C)(C)c1cc(=O)c2c(OC)c(-c3ccc4oc(C(C)(C)C(=O)OC)cc(=O)c4c3OC)ccc2o1` [Compound 35c, Dimethyl 2,2′-(5,5′-Dimethoxy-4,4′-dioxo-4H,4′H-[6,6′-bichromene]-2,2′-diyl)bis(2-methylpropanoate)]: the IC50 at 48 h in series [1] came out at 41 ± 1.1 µM. Further, the “Cytotoxicity … (in words)” value in the series on Jurkat cells [8] is recorded as “highest levels of cytotoxicity”.
